Columns and labels:
[1] = test system: formalin-induced pain model in rats; assay: Formalin pain model, nociceptive behaviors; assay type: in vivo, Sprague-Dawley rats
Protocol: The formalin model is a fast, reliable model used to assess potential analgesics ability to block inflammatory pain. The analgesic effects of test article combinations on pain generation are assayed using the formalin-induced pain model in rats. Adult male Sprague-Dawley rats are administered intraperitoneally study drugs (vehicle, TCA, steroid or TCA/Steroid test article combinations) once daily for 2 days (day −2 and day −1) and 30 minutes prior to the formalin injection day on day 0 (time=0). […] To elicit a pain response, dilute formalin (2% in saline) is injected under the skin of the plantar surface of the right hindpaw. The animal is placed in an observation chamber. The pain response is a characteristic biphasic response pattern of nociceptive behaviors (lifting, licking, and biting of the injected paw). Two distinct periods of nociceptive behaviors/activity are observed and recorded: an early phase (phase I) lasting the first 5-10 min and a late phase (phase II) lasting 20-40 min after the injection of formalin. One hour of data is collected (time spent displaying pain behavior) by a blinded observer using a stopwatch. Results are expressed as the number of pain behaviors per 5 minute periods (Table 8 and Table 9).

[2] = test system: acetic acid-induced pain model in mice; assay: Acetic acid pain model, writhes; assay type: in vivo, ICR mice
Protocol: The acetic acid is a reliable fast model for noxious/visceral pain usually used for screening potential drug candidates for their analgesic activity. The effects of test article combinations on pain generation are assayed using the acetic acid-induced pain model in mice. Adult male ICR mice are administered study drugs intraperitoneally (vehicle, TCA, steroid or TCA/Steroid test article combinations) once daily for 2 days (day −2 and day −1) and 30 minutes prior to the acetic acid injection on day 0 (time=0). […] To elicit a pain response, dilute acetic acid (10 ml/kg of 0.6% solution) is injected intraperitoneally into the abdomen. The animal is placed in an observation chamber, and 5 minutes after acetic acid administration, the number of writhes is counted and recorded over a five minute period by a blinded observer. A writhe is considered as a contraction of the abdominal muscles accompanied by an elongation of the body and extension of the hind limb. Results are expressed as number of writhes.

CNCCC=C1c2ccccc2CCc2ccccc21 [Nortriptyline]
Mean number of behaviors per 5 minute block ([1]; Experiment One, nortriptyline, 1 mg/kg, 5 minutes): 185.0 ± 30.0
Mean number of behaviors per 5 minute block ([1]; Experiment One, nortriptyline, 1 mg/kg, 10 minutes): 26.0 ± 16.0
Mean number of behaviors per 5 minute block ([1]; Experiment One, nortriptyline, 1 mg/kg, 15 minutes): 16.0 ± 16.0
Mean number of behaviors per 5 minute block ([1]; Experiment One, nortriptyline, 1 mg/kg, 20 minutes): 33.0 ± 22.0
Mean number of behaviors per 5 minute block ([1]; Experiment One, nortriptyline, 1 mg/kg, 25 minutes): 124.0 ± 40.0
Mean number of behaviors per 5 minute block ([1]; Experiment One, nortriptyline, 1 mg/kg, 30 minutes): 170.0 ± 46.0
Mean number of behaviors per 5 minute block ([1]; Experiment One, nortriptyline, 1 mg/kg, 35 minutes): 181.0 ± 47.0
Mean number of behaviors per 5 minute block ([1]; Experiment One, nortriptyline, 1 mg/kg, 40 minutes): 168.0 ± 46.0
Mean number of behaviors per 5 minute block ([1]; Experiment One, nortriptyline, 1 mg/kg, 45 minutes): 176.0 ± 45.0
Mean number of behaviors per 5 minute block ([1]; Experiment One, nortriptyline, 1 mg/kg, 50 minutes): 191.0 ± 42.0
Mean number of behaviors per 5 minute block ([1]; Experiment One, nortriptyline, 1 mg/kg, 55 minutes): 165.0 ± 41.0
Mean number of behaviors per 5 minute block ([1]; Experiment One, nortriptyline, 1 mg/kg, 60 minutes): 89.0 ± 34.0
Mean number of behaviors per 5 minute block ([1]; Experiment One, nortriptyline, 3 mg/kg, 5 minutes): 248.0 ± 10.6
Mean number of behaviors per 5 minute block ([1]; Experiment One, nortriptyline, 3 mg/kg, 10 minutes): 36.0 ± 12.0
Mean number of behaviors per 5 minute block ([1]; Experiment One, nortriptyline, 3 mg/kg, 15 minutes): 87.0 ± 32.8
Mean number of behaviors per 5 minute block ([1]; Experiment One, nortriptyline, 3 mg/kg, 20 minutes): 159.0 ± 39.7
Mean number of behaviors per 5 minute block ([1]; Experiment One, nortriptyline, 3 mg/kg, 25 minutes): 182.0 ± 36.3
Mean number of behaviors per 5 minute block ([1]; Experiment One, nortriptyline, 3 mg/kg, 30 minutes): 231.0 ± 32.4
Mean number of behaviors per 5 minute block ([1]; Experiment One, nortriptyline, 3 mg/kg, 35 minutes): 253.0 ± 30.7
Mean number of behaviors per 5 minute block ([1]; Experiment One, nortriptyline, 3 mg/kg, 40 minutes): 253.0 ± 30.8
Mean number of behaviors per 5 minute block ([1]; Experiment One, nortriptyline, 3 mg/kg, 45 minutes): 258.0 ± 28.3
Mean number of behaviors per 5 minute block ([1]; Experiment One, nortriptyline, 3 mg/kg, 50 minutes): 212.0 ± 28.3
Mean number of behaviors per 5 minute block ([1]; Experiment One, nortriptyline, 3 mg/kg, 55 minutes): 136.0 ± 40.3
Mean number of behaviors per 5 minute block ([1]; Experiment One, nortriptyline, 3 mg/kg, 60 minutes): 94.0 ± 41.7
Mean number of behaviors per 5 minute block ([1]; Experiment One, nortriptyline, 10 mg/kg, 5 minutes): 227.0 ± 19.3
Mean number of behaviors per 5 minute block ([1]; Experiment One, nortriptyline, 10 mg/kg, 10 minutes): 30.0 ± 18.2
Mean number of behaviors per 5 minute block ([1]; Experiment One, nortriptyline, 10 mg/kg, 15 minutes): 11.0 ± 6.1
Mean number of behaviors per 5 minute block ([1]; Experiment One, nortriptyline, 10 mg/kg, 20 minutes): 39.0 ± 29.4
Mean number of behaviors per 5 minute block ([1]; Experiment One, nortriptyline, 10 mg/kg, 25 minutes): 62.0 ± 38.5
Mean number of behaviors per 5 minute block ([1]; Experiment One, nortriptyline, 10 mg/kg, 30 minutes): 60.0 ± 34.4
Mean number of behaviors per 5 minute block ([1]; Experiment One, nortriptyline, 10 mg/kg, 35 minutes): 99.0 ± 43.0
Mean number of behaviors per 5 minute block ([1]; Experiment One, nortriptyline, 10 mg/kg, 40 minutes): 109.0 ± 44.0
Mean number of behaviors per 5 minute block ([1]; Experiment One, nortriptyline, 10 mg/kg, 45 minutes): 122.0 ± 43.2
Mean number of behaviors per 5 minute block ([1]; Experiment One, nortriptyline, 10 mg/kg, 50 minutes): 96.0 ± 39.1
Mean number of behaviors per 5 minute block ([1]; Experiment One, nortriptyline, 10 mg/kg, 55 minutes): 140.0 ± 42.6
Mean number of behaviors per 5 minute block ([1]; Experiment One, nortriptyline, 10 mg/kg, 60 minutes): 180.0 ± 40.3
Mean number of behaviors per 5 minute block ([1]; Experiment One, nortriptyline, 20 mg/kg, 5 minutes): 158.0 ± 31.6
Mean number of behaviors per 5 minute block ([1]; Experiment One, nortriptyline, 20 mg/kg, 10 minutes): 21.0 ± 12.8
Mean number of behaviors per 5 minute block ([1]; Experiment One, nortriptyline, 20 mg/kg, 15 minutes): 0.0 ± 0.0
Mean number of behaviors per 5 minute block ([1]; Experiment One, nortriptyline, 20 mg/kg, 20 minutes): 9.0 ± 8.8
Mean number of behaviors per 5 minute block ([1]; Experiment One, nortriptyline, 20 mg/kg, 25 minutes): 30.0 ± 30.0
Mean number of behaviors per 5 minute block ([1]; Experiment One, nortriptyline, 20 mg/kg, 30 minutes): 36.0 ± 29.9
Mean number of behaviors per 5 minute block ([1]; Experiment One, nortriptyline, 20 mg/kg, 35 minutes): 33.0 ± 29.2
Mean number of behaviors per 5 minute block ([1]; Experiment One, nortriptyline, 20 mg/kg, 40 minutes): 29.0 ± 29.3
Mean number of behaviors per 5 minute block ([1]; Experiment One, nortriptyline, 20 mg/kg, 45 minutes): 33.0 ± 26.9
Mean number of behaviors per 5 minute block ([1]; Experiment One, nortriptyline, 20 mg/kg, 50 minutes): 46.0 ± 28.2
Mean number of behaviors per 5 minute block ([1]; Experiment One, nortriptyline, 20 mg/kg, 55 minutes): 47.0 ± 29.4
Mean number of behaviors per 5 minute block ([1]; Experiment One, nortriptyline, 20 mg/kg, 60 minutes): 68.0 ± 37.6
Mean number of behaviors per 5 minute block ([1]; Experiment Two, 1 mg/kg, 5 minutes): 232.0 ± 16.5
Mean number of behaviors per 5 minute block ([1]; Experiment Two, 1 mg/kg, 10 minutes): 13.0 ± 4.9
Mean number of behaviors per 5 minute block ([1]; Experiment Two, 1 mg/kg, 15 minutes): 27.0 ± 16.8
Mean number of behaviors per 5 minute block ([1]; Experiment Two, 1 mg/kg, 20 minutes): 113.0 ± 44.2
Mean number of behaviors per 5 minute block ([1]; Experiment Two, 1 mg/kg, 25 minutes): 165.0 ± 45.1
Mean number of behaviors per 5 minute block ([1]; Experiment Two, 1 mg/kg, 30 minutes): 234.0 ± 26.3
Mean number of behaviors per 5 minute block ([1]; Experiment Two, 1 mg/kg, 35 minutes): 270.0 ± 10.6
Mean number of behaviors per 5 minute block ([1]; Experiment Two, 1 mg/kg, 40 minutes): 281.0 ± 10.4
Mean number of behaviors per 5 minute block ([1]; Experiment Two, 1 mg/kg, 45 minutes): 287.0 ± 5.5
Mean number of behaviors per 5 minute block ([1]; Experiment Two, 1 mg/kg, 50 minutes): 266.0 ± 16.6
Mean number of behaviors per 5 minute block ([1]; Experiment Two, 1 mg/kg, 55 minutes): 192.0 ± 38.3
Mean number of behaviors per 5 minute block ([1]; Experiment Two, 1 mg/kg, 60 minutes): 170.0 ± 46.6
Mean number of behaviors per 5 minute block ([1]; Experiment Two, 3 mg/kg, 5 minutes): 228.0 ± 25.1
Mean number of behaviors per 5 minute block ([1]; Experiment Two, 3 mg/kg, 10 minutes): 28.0 ± 12.3
Mean number of behaviors per 5 minute block ([1]; Experiment Two, 3 mg/kg, 15 minutes): 10.0 ± 6.2
Mean number of behaviors per 5 minute block ([1]; Experiment Two, 3 mg/kg, 20 minutes): 96.0 ± 43.8
Mean number of behaviors per 5 minute block ([1]; Experiment Two, 3 mg/kg, 25 minutes): 162.0 ± 44.0
Mean number of behaviors per 5 minute block ([1]; Experiment Two, 3 mg/kg, 30 minutes): 200.0 ± 45.0
Mean number of behaviors per 5 minute block ([1]; Experiment Two, 3 mg/kg, 35 minutes): 217.0 ± 47.8
Mean number of behaviors per 5 minute block ([1]; Experiment Two, 3 mg/kg, 40 minutes): 216.0 ± 47.3
Mean number of behaviors per 5 minute block ([1]; Experiment Two, 3 mg/kg, 45 minutes): 220.0 ± 48.1
Mean number of behaviors per 5 minute block ([1]; Experiment Two, 3 mg/kg, 50 minutes): 224.0 ± 42.0
Mean number of behaviors per 5 minute block ([1]; Experiment Two, 3 mg/kg, 55 minutes): 247.0 ± 36.2
Mean number of behaviors per 5 minute block ([1]; Experiment Two, 3 mg/kg, 60 minutes): 188.0 ± 36.8
Mean # of writhes per 5 minutes ± SEM ([2]; 1 mg/kg ip): 11.78 ± 3.44
Mean # of writhes per 5 minutes ± SEM ([2]; 5 mg/kg ip): 7.79 ± 3.81
Mean # of writhes per 5 minutes ± SEM ([2]; 10 mg/kg ip): 7.57 ± 2.53
Mean # of writhes per 5 minutes ± SEM ([2]; 15 mg/kg ip): 2.07 ± 1.42
